Test results taken from US20090105320A1, “Biodal Compositions Containing 1,2-Benzisothiazolin-3-One And 1,2-Dibromo-2,4-Dicyanobutane” (priority 2006, published 2009).
Read-outs that look alike come from different tables or passages of the source.

How the values were obtained:
[1] = Solubilities of biocidal active substances in different solvents at 25° C.; assay type: physicochemical
[2] = Storage stability (appearance of solution) in different solvents at −5° C., +20° C. and +50° C., 14 days' storage; assay type: physicochemical
[3] = cited from earlier work
[4] = in Polyethylene glycol 300, 25° C.
[5] = in Polyethylene glycol 400/glycerol 3:1, 25° C.
[6] = in TEGDME (tetraethylene glycol dimethyl ether), 25° C.
[7] = in Butyl polyglycol, 14 days' storage
[8] = in Diethylene glycol, 14 days' storage
[9] = in Dimethyl sulfoxide, 14 days' storage
[10] = in N-Methylpyrrolidone, 14 days' storage
[11] = in Polyethylene glycol 300, 14 days' storage
[12] = in dimethyl sulfoxide or N-methylpyrrolidone

| Storage stability at +20° C. [2, 7] | Storage stability at +50° C. [2, 7] | Storage stability at −5° C. [2, 7] | Storage stability at +20° C. [2, 8] | Storage stability at +50° C. [2, 8] | Storage stability at −5° C. [2, 8] | Storage stability at +20° C. [2, 9] | Compound | Solubility [25° C.] ([1]; in 2-Ethylhexanol, 25° C.) | Solubility [25° C.] ([1]; in Butyl diglycol, 25° C.) | Solubility [25° C.] ([1]; in Butyl polyglycol, 25° C.) | Solubility [25° C.] ([1]; in Diethylene glycol, 25° C.) | Solubility [25° C.] ([1]; in Dimethyl sulfoxide, 25° C.) | Solubility [25° C.] ([1]; in Dipropylene glycol, 25° C.) | Solubility [25° C.] ([1]; in Glycerol, 25° C.) | Solubility [25° C.] ([1]; in N-Methylpyrrolidone, 25° C.) | Solubility [25° C.] [1, 4] | Solubility [25° C.] [1, 5] | Solubility [25° C.] ([1]; in Polyglycol D 21/150, 25° C.) | Solubility [25° C.] ([1]; in Polyglycol M 350, 25° C.) | Solubility [25° C.] [1, 6] | other results |
| --- | --- | --- | --- | --- | --- | --- | --- | --- | --- | --- | --- | --- | --- | --- | --- | --- | --- | --- | --- | --- | --- |
| clear solution | clear solution | clear solution | clear solution | clear solution | clear solution | clear solution | O=c1[nH]sc2ccccc12 [1,2-Benzisothiazolin-3-one, 1,2-benzisothiazolin-3-one] | insoluble | 7% | 10% | 7% | 30% | 5% | insoluble | 7% | 8% | 7% | 4% | 9% | 8% | Storage stability at +50° C. [2, 9]: clear solution; Storage stability at −5° C. [2, 9]: clear solution; Storage stability at +20° C. [2, 10]: clear solution; Storage stability at +50° C. [2, 10]: clear solution; Storage stability at −5° C. [2, 10]: clear solution; Storage stability at +20° C. [2, 11]: clear solution; Storage stability at +50° C. [2, 11]: clear solution; Storage stability at −5° C. [2, 11]: clear solution; Active substance content at which solutions are stable ([3]; propylene glycol/water or diethylene glycol/water mixture, U.S. Pat. No. 4,188,376, higher concentrated solutions liable to precipitation): below 5 % by weight; Solubility in water ([3]; water): sparingly soluble |
| clear, yellowish | clear, yellowish | clear, colorless | clear, colorless | clear, colorless | clear, colorless | brown solution | N#CCCC(Br)(C#N)CBr (stereo not shown) [1,2-Dibromo-2,4-dicyanobutane, 1,2-dibromo-2,4-dicyanobutane] | insoluble | 30% | 40% | 20% | 45% | 10% | insoluble | 40% | 35% | 20% | 15% | 45% | 45% | Storage stability at +50° C. [2, 9]: black solution; Storage stability at −5° C. [2, 9]: clear, yellowish; Storage stability at +20° C. [2, 10]: brown solution; Storage stability at +50° C. [2, 10]: black solution; Storage stability at −5° C. [2, 10]: clear, yellowish; Storage stability at +20° C. [2, 11]: clear, yellowish; Storage stability at +50° C. [2, 11]: clear, yellowish; Storage stability at −5° C. [2, 11]: clear, colorless; Chemical stability [3, 12]: chemically unstable; Solubility [3, 12]: readily soluble; Solubility ([3]; in solvents such as glycerol or 2-ethylhexanol): sparingly soluble |
